pIC50: −log10 of the molar value.
Key:
5'-nucleotidase [1] = target: T1, 5'-nucleotidase (Mus musculus, UniProt Q61503); experiment: Inhibition of mouse CD73 expressed in CHO cells incubated for 60 mins before addition of AMP and further incubated for 60 mins by colorimetric assay; format: cell-based
T1 sequence (Q61503 whole entry): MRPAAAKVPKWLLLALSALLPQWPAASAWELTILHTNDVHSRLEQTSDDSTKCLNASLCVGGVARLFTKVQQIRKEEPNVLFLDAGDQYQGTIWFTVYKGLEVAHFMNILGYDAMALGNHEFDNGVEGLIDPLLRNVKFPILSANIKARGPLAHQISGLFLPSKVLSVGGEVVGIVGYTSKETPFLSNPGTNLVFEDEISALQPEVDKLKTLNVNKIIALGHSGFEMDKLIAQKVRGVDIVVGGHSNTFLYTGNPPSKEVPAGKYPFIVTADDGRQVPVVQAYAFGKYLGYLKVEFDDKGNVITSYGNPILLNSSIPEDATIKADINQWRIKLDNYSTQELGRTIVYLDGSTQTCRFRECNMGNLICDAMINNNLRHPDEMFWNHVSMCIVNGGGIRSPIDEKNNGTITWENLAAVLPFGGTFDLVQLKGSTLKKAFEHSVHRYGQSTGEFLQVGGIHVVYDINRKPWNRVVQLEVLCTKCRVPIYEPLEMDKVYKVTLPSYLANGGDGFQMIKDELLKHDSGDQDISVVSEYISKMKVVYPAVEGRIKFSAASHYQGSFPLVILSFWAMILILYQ

5'-nucleotidase [2] = target: T1, 5'-nucleotidase; experiment: Inhibition of soluble mouse CD73 incubated for 60 mins before addition of AMP and further incubated for 60 mins by colorimetric assay
[3] = target: T2, Ectonucleoside triphosphate diphosphohydrolase 1 (Homo sapiens, UniProt P49961); experiment: Inhibition of human CD39 expressed in CHO cells incubated for 4 hrs before addition of ATP and further incubated for 60 mins by colorimetric assay
T2 sequence (P49961 whole entry): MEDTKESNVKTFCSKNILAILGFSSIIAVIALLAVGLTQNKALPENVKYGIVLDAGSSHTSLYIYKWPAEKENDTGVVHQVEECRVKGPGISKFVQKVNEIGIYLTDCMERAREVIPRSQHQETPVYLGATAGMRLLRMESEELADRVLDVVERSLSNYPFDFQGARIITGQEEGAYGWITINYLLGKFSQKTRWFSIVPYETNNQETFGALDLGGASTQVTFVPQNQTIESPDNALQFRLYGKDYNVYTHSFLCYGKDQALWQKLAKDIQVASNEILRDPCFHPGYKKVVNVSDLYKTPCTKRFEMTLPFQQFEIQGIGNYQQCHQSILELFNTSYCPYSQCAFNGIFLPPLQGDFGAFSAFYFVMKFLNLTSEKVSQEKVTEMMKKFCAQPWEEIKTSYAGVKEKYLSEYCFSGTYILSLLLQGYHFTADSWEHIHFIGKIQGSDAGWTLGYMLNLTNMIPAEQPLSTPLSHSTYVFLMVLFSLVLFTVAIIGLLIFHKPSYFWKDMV

Compound: O=P(O)(O)COC[C@H]1O[C@@H](n2ncc3c(NC4CCCC4)nc(Cl)nc32)[C@H](O)[C@@H]1O
- pIC50 (5'-nucleotidase [1]): 7.89
- pIC50 (5'-nucleotidase [2]): 8.52
- pIC50 [3]: < 5.00
